In the test the target is Sigma non-opioid intracellular receptor 1 (Cavia porcellus). The test is described as follows: Displacement of [3H]-(+) -3PPP from sigma receptor in guinea pig brain membranes. On the technique in general: In a radioligand displacement assay an active substance lowers the binding of a labelled ligand.
In the case of `CCN(CCc1ccc(Cl)c(Cl)c1)CCN1CCCC1`, the Ki is 0.51 nM. That is a sub-nanomolar value.
The same measure for `CN(CCCN1CCCC1)CCc1ccc(Cl)c(Cl)c1`: 1.8 nM; for `CN(CCc1ccc2ccccc2c1)CCN1CCCC1`: 2.1 nM.
With `CN(C)CCNCCc1ccc(Cl)c(Cl)c1` the figure was 20 nM.
With `CCN(CC)CCN(C)CCc1ccc(Cl)c(Cl)c1` the figure was 0.73 nM.
Turning to `CN(CCN1CCCC1)Cc1ccc(Cl)c(Cl)c1`, affinity was put at a Ki of 0.38 nM.
With `CN(CCc1ccc(Cl)cc1)CCN1CCCC1` the figure was 1.5 nM; with `C=CCN(CCc1ccc(Cl)c(Cl)c1)CCN1CCCC1`, 1.4 nM; with `CNCCN(C)CCc1ccc(Cl)c(Cl)c1`, 5.8 nM.
With `CC(CN(C)CCc1ccc(Cl)c(Cl)c1)N(C)C` (stereo unspecified) the figure was 1.5 nM; with `CN(CCc1ccccc1)CCN1CCCC1`, 7.4 nM.

A word on the Ki: it is the equilibrium dissociation constant of an inhibitor or competing ligand from its target.

The record behind these values is BindingDB's records for doi:10.1021/jm00079a004 (National Institute of Diabetes and Digestive and Kidney …, 1992).
